# In PubChem BioAssay (NCI):
#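 All cell lines were grown in 96-well plates and treated with compound for 48 hours. Abbreviation: GI50, concentration required for 50% inhibition of growth. Definition used: TGI = concentration required for complete inhibition of growth.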
# Assays:
# Assay in all cases: NCI anticancer screen, dose series, 48 h
# [1] = test system: A498 renal
# [2] = test system: A549 NSCLC
# [3] = test system: ACHN renal
# [4] = test system: CAKI-1 renal
# [5] = test system: CCRF-CEM leukemia
# [6] = test system: COLO 205 colon
# [7] = test system: DU-145 prostate
# [8] = test system: EKVX NSCLC
# [9] = test system: HL-60(TB) leukemia
# [10] = test system: HOP-92 NSCLC
# [11] = test system: HS 578T breast
# [12] = test system: IGROV1 ovarian
# [13] = test system: K-562 leukemia
# [14] = test system: KM12 colon
# [15] = test system: MALME-3M melanoma
# [16] = test system: MDA-MB-231 breast
# [17] = test system: MDA-MB-435
# [18] = test system: NCI-H23 lung
# [19] = test system: NCI-H460 lung
# [20] = test system: OVCAR-4 ovarian
# [21] = test system: OVCAR-5 ovarian
# [22] = test system: PC-3 prostate
# [23] = test system: RXF 393 renal
# [24] = test system: SF-268 CNS
# [25] = test system: SF-295 CNS
# [26] = test system: SF-539 CNS
# [27] = test system: SK-MEL-2 melanoma
# [28] = test system: SK-MEL-28 melanoma
# [29] = test system: SK-OV-3 ovarian
# [30] = test system: SN12C renal
# [31] = test system: SNB-75 CNS
# [32] = test system: SW-620 colon
# [33] = test system: T-47D breast
# [34] = test system: U251 CNS
# [35] = test system: UACC-257 melanoma
# [36] = test system: UACC-62 melanoma
# [37] = test system: UO-31 renal
smiles,measurement,setting,value
C#CC[C@@H]1C[C@]2(C)[C@H]3CC=C4[C@H]5CC(C)(C)CC[C@]5(C(=O)NCCCCN)CC[C@@]4(C)[C@]3(C)CC[C@H]2C(C)(C)[C@H]1OC(C)=O,GI50,[1],1800 nM
same,TGI,[1],3210 nM
same,GI50,[2],1660 nM
same,TGI,[2],3270 nM
same,GI50,[3],1730 nM
same,TGI,[3],3110 nM
same,GI50,[4],1540 nM
same,TGI,[4],2900 nM
same,GI50,[5],1930 nM
same,TGI,[5],4550 nM
same,GI50,[6],1720 nM
same,TGI,[6],3320 nM
same,GI50,[7],1700 nM
same,TGI,[7],3150 nM
same,GI50,[8],1690 nM
same,TGI,[8],3300 nM
same,GI50,[9],1770 nM
same,TGI,[9],3710 nM
same,GI50,[10],1330 nM
same,TGI,[10],2810 nM
same,GI50,[11],1730 nM
same,TGI,[11],3710 nM
same,GI50,[12],1620 nM
same,TGI,[12],3020 nM
same,GI50,[13],1910 nM
same,TGI,[13],6160 nM
same,GI50,[14],1680 nM
same,TGI,[14],3180 nM
same,GI50,[15],1550 nM
same,TGI,[15],3040 nM
same,GI50,[16],1610 nM
same,TGI,[16],3100 nM
same,GI50,[17],1690 nM
same,TGI,[17],3100 nM
same,GI50,[18],1750 nM
same,TGI,[18],3470 nM
same,GI50,[19],1840 nM
same,TGI,[19],3470 nM
same,GI50,[20],1710 nM
same,TGI,[20],3230 nM
same,GI50,[21],1620 nM
same,TGI,[21],2990 nM
same,GI50,[22],1550 nM
same,TGI,[22],2930 nM
same,GI50,[23],1520 nM
same,TGI,[23],2950 nM
same,GI50,[24],1730 nM
same,TGI,[24],3620 nM
same,GI50,[25],1820 nM
same,TGI,[25],3290 nM
same,GI50,[26],1680 nM
same,TGI,[26],3100 nM
same,GI50,[27],1780 nM
same,TGI,[27],3450 nM
same,GI50,[28],1740 nM
same,TGI,[28],3170 nM
same,GI50,[29],1720 nM
same,TGI,[29],3180 nM
same,GI50,[30],1760 nM
same,TGI,[30],3280 nM
same,GI50,[31],1380 nM
same,TGI,[31],2690 nM
same,GI50,[32],1710 nM
same,TGI,[32],3390 nM
same,GI50,[33],1720 nM
same,TGI,[33],3480 nM
same,GI50,[34],1690 nM
same,TGI,[34],3210 nM
same,GI50,[35],1870 nM
same,TGI,[35],3610 nM
same,GI50,[36],1860 nM
same,TGI,[36],3340 nM
same,GI50,[37],1410 nM
same,TGI,[37],2710 nM
